# Results reported in patent publication US11273150B2, “Compositions and methods for the treatment of presbyopia” (priority 2018, dated 2022).
# Where “and” joins values, the source holds several entries; their conditions need not be identical. Equal entries are not always repeated.
# Experiments:
# eye [1] = assay: Efficacy and comfort of various nonionic surfactants (Example 15, Table 10); design: species or system human; conditions: in vivo
# Source text: Duration was excellent for each nonionic surfactant tested.
# eye [2] = conditions: cited from earlier work
# eye [3] = assay: Clinical observations stated in the description (miosis, duration, blur, redness, anterior chamber); assay type: in vivo, human
# [4] = Aceclidine total related substances after storage with or without Mylar lined pouches (Example 18); assay type: physicochemical
# Method: Aceclidine total related substances was recorded at 1, 2, 3 and 6 months.
# Mylar® was used as the source of biaxially-oriented polyethylene terephthalate. Mylar is a registered trademark of and available from DuPont Teijin Films US Limited.
# [5] = tested on: emmetrope over the age of 45; assay: Effects of pilocarpine and aceclidine with or without tropicamide and carrier on near and distance vision (FIG. 1); assay type: in vivo, human
# Source text: Subject is an emmetrope over the age of 45 with a baseline near vision of 20.100 and baseline distance vision of 20.20. Topical administration to the eye of 1% w/v pilocarpine in saline solution results in an improvement of near vision to 20.40 (8a), however this improvement comes at the expense of a reduction in distance vision to 20.100 (8b). […] A proper drug carrier can also have a beneficial effect.
# eye [6] = assay: Effect of concentration of aceclidine, brimonidine, guanfacine, fadolmidine, tropicamide and additives (Example 3); assay type: in vivo, human
# Method: All percentages are w/v. Scores for nasal congestion, stinging initial, stinging, 3 min, redness initial, redness 15 min, whitening, pain and overall are out of 4.
# “pt” reflects size of print materials, 4 being equivalent to 20/20 vision and 3 to 20/15 vision.
# Baseline vision was 20.20 both eyes for distance; 20.70 right eye unaided for near; 20.80 left eye for near (best @ 16″).
# D/C stands for discontinued after eye washing due to intolerable stinging.
# All baseline vision data was based on vision corrected with distance contact lenses. Near vision was noted by subject as outstanding from 8 to 10 inches to the horizon at 30 minutes after installation for AB4T and AB6T.
# AB4T and AB6T were repeated both monocularly and binocularly. Substantial improvement in depth perception, near point acuity to 3 pt (20.15), and near point distance (8″, 20.20) was noted when both eyes were treated vs. monocular treatment.
# [7] = Stability of aceclidine at 25° C. and 4° C. by HPLC (Example 10); assay type: physicochemical
# Method: 20 samples of the above composition were divided evenly and stored at 25° C. and 4° C. Prior to storage, initial concentrations of aceclidine were measured using […] (“HPLC”). The amount of aceclidine in each solution was calculated by the area under the principal peak compared to a reference solution of aceclidine. Samples were then subject to storage for 3 months. Aceclidine measurements were taken at 1, 2 and 3 months.
# presbyopic subjects = assay: Effect of aceclidine on vision of presbyopic subjects aged 47 to 67 years (Example 1); assay type: in vivo, human; conditions: for Effect: duration of effect; for L Post Dist: left eye distance vision; for L Post Dist / L Post Near / R Post Dist / R Post Near: Post Gtt 15″; for R Post Dist: right eye distance vision
# Method: As aceclidine is an […], the clinical effectiveness may vary with different ratios. For the present studies a nearly exact 50:50 ratio of stereoisomers was measured as best determined by polarimetry.
# After administration of the composition all subjects experienced an improvement in their near vision that lasted from 7 to 12 hours.
# [8] = Aceclidine potency following storage (Example 19); assay type: physicochemical
# [9] = Pouched (5 C.), first listing (r9)
# [10] = Pouched (5 C.), second listing (r12)
# [11] = Pouched (25 C.), first listing (r10)
# [12] = Pouched (25 C.), second listing (r13)
# [13] = aceclidine 1.1% w/v + 0.125% w/v tropicamide, subjects 4 and 5
# [14] = aceclidine 1.5% w/v in HPβCD/CMC/NaCl/BAK, one line per subject
# [15] = Pouched (5 C.), first group (initial 99.70%)
# [16] = Pouched (5 C.), second group (initial 99.60%)
# [17] = Pouched (25 C.), first group (initial 99.70%)
# [18] = Pouched (25 C.), second group (initial 99.60%)
compound,measurement,setting,value
Polyoxyl 35 castor oil,Redness 1 hr,eye [1],0.25
same,Stinging,eye [1],0
Brc1c(NC2=NCCN2)ccc2nccnc12 [brimonidine],"rebound redness, patients",eye [2]; brimonidine 0.20% w/v (Alphagan®) twice daily,25%
same,"tachyphylaxis of pupil modulation, treated subjects","eye [2]; brimonidine 0.20% w/v topically for night vision, within four weeks of use, almost",~100%
Polysorbate 80,Redness 1 hr,eye [1],0.5
same,Stinging,eye [1],0.25
CC[C@@H]1C(=O)OC[C@@H]1Cc1cncn1C [pilocarpine],distance blur,eye [3]; pilocarpine instilled monocularly,2-3 lines
same,pupil size,"eye [3]; upon instillation of 1.0% pilocarpine, or larger in most subjects",≥ 2.3 mm
Poloxamer 188,Redness 1 hr,eye [1],0.25-
same,Stinging,eye [1],0-2
Poloxamer 407,Redness 1 hr,eye [1],1
same,Stinging,eye [1],0.5
Tyloxapol,Redness 1 hr,eye [1],0.25-
same,Stinging,eye [1],0-2
"CC(=O)OC1CN2CCC1CC2 (stereo not drawn) [Aceclidine, aceclidine]","Aceclidine Total Related Substances, One Month Result",[4]; [9],0.54%
same,"Aceclidine Total Related Substances, Six Month Result",[4]; [9],0.47%
same,"Aceclidine Total Related Substances, Three Month Result",[4]; [9],0.35%
same,"Aceclidine Total Related Substances, Total % Change",[4]; [9],0.06%
same,"Aceclidine Total Related Substances, One Month Result",[4]; [10],0.50%
same,"Aceclidine Total Related Substances, Six Month Result",[4]; [10],0.00%
same,"Aceclidine Total Related Substances, Three Month Result",[4]; [10],0.18%
same,"Aceclidine Total Related Substances, Total % Change",[4]; [10],−0.41%
same,"Aceclidine Total Related Substances, One Month Result",[4]; [11],0.55%
same,"Aceclidine Total Related Substances, Six Month Result",[4]; [11],0.36%
same,"Aceclidine Total Related Substances, Three Month Result",[4]; [11],1.26%
same,"Aceclidine Total Related Substances, Total % Change",[4]; [11],−0.05% and 0.05%
same,"Aceclidine Total Related Substances, One Month Result",[4]; [12],0.74%
same,"Aceclidine Total Related Substances, Six Month Result",[4]; [12],0.00%
same,"Aceclidine Total Related Substances, Three Month Result",[4]; [12],0.31%
same,"Aceclidine Total Related Substances, Total % Change",[4]; [12],−0.41%
same,"Aceclidine Total Related Substances, One Month Result",[4]; Pouched (−20 C.),0.74%
same,"Aceclidine Total Related Substances, Six Month Result",[4]; Pouched (−20 C.),0.00%
same,"Aceclidine Total Related Substances, Three Month Result",[4]; Pouched (−20 C.),0.25%
same,"Aceclidine Total Related Substances, Total % Change",[4]; Pouched (−20 C.),−0.41%
same,"Aceclidine Total Related Substances, One Month Result",[4]; Unpouched (5 C.),0.55%
same,"Aceclidine Total Related Substances, Six Month Result",[4]; Unpouched (5 C.),0.49%
same,"Aceclidine Total Related Substances, Three Month Result",[4]; Unpouched (5 C.),0.05%
same,"Aceclidine Total Related Substances, Total % Change",[4]; Unpouched (5 C.),0.08%
same,"Aceclidine Total Related Substances, Two Month Result",[4]; Unpouched (5 C.),0.51%
same,"Aceclidine Total Related Substances, Initial Result","[4]; Unpouched (5 C.) line, initial",0.41%
same,"Aceclidine Total Related Substances, One Month Result",[4]; Unpouched (25 C.),0.58%
same,"Aceclidine Total Related Substances, Six Month Result",[4]; Unpouched (25 C.),4.87%
same,"Aceclidine Total Related Substances, Three Month Result",[4]; Unpouched (25 C.),1.39%
same,"Aceclidine Total Related Substances, Total % Change",[4]; Unpouched (25 C.),4.46%
same,"Aceclidine Total Related Substances, Two Month Result",[4]; Unpouched (25 C.),1.45%
same,anterior chamber shallowing,eye [3]; aceclidine with further inclusion of a cycloplegic agent,0.04 mm
same,extended time period of near vision improvement,[5]; 1.55% w/v aceclidine in saline solution,6 h
same,distance vision,"[5]; 1.55% w/v aceclidine in saline solution, baseline 20.20",without any effect on the baseline distance vision
same,near vision,"[5]; 1.55% w/v aceclidine in saline solution, baseline near 20.100",20.40
same,near vision,[5]; aceclidine + 0.042% w/v tropicamide in the carrier,20.15
same,near vision,"[5]; aceclidine in carrier (5.5% HPβCD, 0.75% CMC, 0.25% NaCl, 0.01% BAK), better than",> 20.20
same,"corrected near and distance vision to 20.20 or better, duration",eye [6]; aceclidine 1.55% w/v,at least 6 hours
same,noticeable affect lasting,eye [6]; aceclidine 1.55% w/v,about 7.5 hours
same,size of the pupil,"eye [6]; aceclidine 1.55% w/v, 30 minutes after topical instillation",about 1.63 mm
same,near vision improvement,eye [6]; aceclidine lowered to 1.25% w/v (not shown),20.25-20.30
same,"Stability of Aceclidine, 1 month","[7]; 4° C., Example 10 composition",93%
same,"Stability of Aceclidine, 2 months","[7]; 4° C., Example 10 composition",92%
same,"Stability of Aceclidine, 3 months","[7]; 4° C., Example 10 composition",88%
same,"Stability of Aceclidine, Initial","[7]; 4° C., Example 10 composition",100%
same,"Stability of Aceclidine, 1 month","[7]; 25° C., Example 10 composition",92%
same,"Stability of Aceclidine, 2 months","[7]; 25° C., Example 10 composition",75%
same,"Stability of Aceclidine, 3 months","[7]; 25° C., Example 10 composition",50%
same,"Stability of Aceclidine, Initial","[7]; 25° C., aceclidine 1.50%, tropicamide 0.042%, polyoxyl 40 stearate 5.5%, mannitol 2.5%, citrate 3 mM, pH 4.75",100%
same,Effect,presbyopic subjects; [13],7.00 h and 12.00 h
same,Effect,presbyopic subjects; [14],8.00 h (4×) and 9.00 h
same,L Post Dist,presbyopic subjects; [13],20.20 and 20.15
same,L Post Dist,presbyopic subjects; [14],20.20 (2×) and 20.30 and 20.25 (2×)
same,L Post Near,"presbyopic subjects; left eye near vision (15 inches), aceclidine 1.5% w/v in HPβCD/CMC/NaCl/BAK, one line per subject",20.15 (3×) and 20.30 and 20.20
same,L Post Near,"presbyopic subjects; left eye near vision, aceclidine 1.1% w/v + 0.125% w/v tropicamide, subjects 4 and 5",20.25 and 20.15
same,R Post Dist,"presbyopic subjects; aceclidine 1.1% w/v + 0.125% w/v tropicamide, same carrier, subjects 4 and 5",20.20 and 20.15
same,R Post Dist,presbyopic subjects; [14],20.20 (3×) and 20.25 (2×)
same,R Post Near,"presbyopic subjects; right eye near vision (15 inches), aceclidine 1.5% w/v in HPβCD/CMC/NaCl/BAK, one line per subject",20.15 (3×) and 20.20 and 20.25
same,R Post Near,"presbyopic subjects; right eye near vision, aceclidine 1.1% w/v + 0.125% w/v tropicamide, subjects 4 and 5",20.25 and 20.20
same,"Aceclidine Potency, One Month Result",[8]; [15],100.0%
same,"Aceclidine Potency, Six Month Result",[8]; [15],100.8%
same,"Aceclidine Potency, Three Month Result",[8]; [15],99.7%
same,Percent Change Between Initial and Six Month Results,[8]; [15],1.1%
same,"Aceclidine Potency, One Month Result",[8]; [16],99.5%
same,"Aceclidine Potency, Six Month Result",[8]; [16],102.2%
same,"Aceclidine Potency, Three Month Result",[8]; [16],102.3%
same,Percent Change Between Initial and Six Month Results,[8]; [16],2.6%
same,"Aceclidine Potency, One Month Result",[8]; [17],98.4%
same,"Aceclidine Potency, Six Month Result",[8]; [17],94.9%
same,"Aceclidine Potency, Three Month Result",[8]; [17],97.5%
same,Percent Change Between Initial and Six Month Results,[8]; [17],−4.8%
same,"Aceclidine Potency, One Month Result",[8]; [18],103.0%
same,"Aceclidine Potency, Six Month Result",[8]; [18],96.0%
same,"Aceclidine Potency, Three Month Result",[8]; [18],99.0%
same,Percent Change Between Initial and Six Month Results,[8]; [18],3.6%
same,"Aceclidine Potency, One Month Result",[8]; Pouched (−25 C.),98.5%
same,"Aceclidine Potency, Six Month Result",[8]; Pouched (−25 C.),103.1%
same,"Aceclidine Potency, Three Month Result",[8]; Pouched (−25 C.),101.4%
same,Percent Change Between Initial and Six Month Results,[8]; Pouched (−25 C.),3.5%
same,"Aceclidine Potency, Initial Result","[8]; Pouched (−25 C.) line, initial of second group",99.60%
same,"Aceclidine Potency, One Month Result",[8]; Unpouched (5 C.),99.3%
same,"Aceclidine Potency, Six Month Result",[8]; Unpouched (5 C.),100.5%
same,"Aceclidine Potency, Three Month Result",[8]; Unpouched (5 C.),100.0%
same,"Aceclidine Potency, Two Month Result",[8]; Unpouched (5 C.),102.0%
same,Percent Change Between Initial and Six Month Results,[8]; Unpouched (5 C.),0.8%
same,"Aceclidine Potency, Initial Result","[8]; Unpouched (5 C.) line, initial of first group",99.70%
same,"Aceclidine Potency, One Month Result",[8]; Unpouched (25 C.),98.2%
same,"Aceclidine Potency, Six Month Result",[8]; Unpouched (25 C.),97.7%
same,"Aceclidine Potency, Three Month Result",[8]; Unpouched (25 C.),98.2%
same,"Aceclidine Potency, Two Month Result",[8]; Unpouched (25 C.),101.9%
same,Percent Change Between Initial and Six Month Results,[8]; Unpouched (25 C.),−2.0%
